{
  "source": "ChEMBL document CHEMBL4808209",
  "about": "(J Med Chem, 2021)",
  "key": {"[1]": {"target": "Substance-P receptor (Homo sapiens, UniProt P25103)", "sequence (P25103 whole entry)": "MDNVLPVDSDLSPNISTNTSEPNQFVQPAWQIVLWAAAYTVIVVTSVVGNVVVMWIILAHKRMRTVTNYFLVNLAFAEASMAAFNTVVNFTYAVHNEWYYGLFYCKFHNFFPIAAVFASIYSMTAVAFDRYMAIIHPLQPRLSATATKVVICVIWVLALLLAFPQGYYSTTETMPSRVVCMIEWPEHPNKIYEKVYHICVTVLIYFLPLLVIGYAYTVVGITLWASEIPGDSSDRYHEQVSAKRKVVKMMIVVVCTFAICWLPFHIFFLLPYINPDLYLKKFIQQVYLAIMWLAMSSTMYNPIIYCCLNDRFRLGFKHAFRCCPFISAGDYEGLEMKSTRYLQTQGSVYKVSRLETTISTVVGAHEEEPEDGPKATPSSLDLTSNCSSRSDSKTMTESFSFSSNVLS", "test": "Inhibition of NK-1 (unknown origin) at 0.1 to 1 uM", "details": "dose 0.1-1 µM; call rule not given here"}, "[2]": {"test": "Oral bioavailability in Sprague-Dawley rat at 2 mg/kg administered as cassette dose measured after 24 hrs", "format": "ADME, organism-based", "details": "in vivo"}, "[3]": {"test": "AUC in cynomolgus monkey at 2 mg/kg, po or 0.5 mg/kg, iv administered as cassette dose measured after 24 hrs", "format": "ADME, organism-based, Macaca fascicularis", "set-up": "dose 2 mg/kg, time 24 hrs", "details": "in vivo"}, "[4]": {"target": "Muscarinic acetylcholine receptor M2 (Homo sapiens, UniProt P08172)", "sequence (P08172 whole entry)": "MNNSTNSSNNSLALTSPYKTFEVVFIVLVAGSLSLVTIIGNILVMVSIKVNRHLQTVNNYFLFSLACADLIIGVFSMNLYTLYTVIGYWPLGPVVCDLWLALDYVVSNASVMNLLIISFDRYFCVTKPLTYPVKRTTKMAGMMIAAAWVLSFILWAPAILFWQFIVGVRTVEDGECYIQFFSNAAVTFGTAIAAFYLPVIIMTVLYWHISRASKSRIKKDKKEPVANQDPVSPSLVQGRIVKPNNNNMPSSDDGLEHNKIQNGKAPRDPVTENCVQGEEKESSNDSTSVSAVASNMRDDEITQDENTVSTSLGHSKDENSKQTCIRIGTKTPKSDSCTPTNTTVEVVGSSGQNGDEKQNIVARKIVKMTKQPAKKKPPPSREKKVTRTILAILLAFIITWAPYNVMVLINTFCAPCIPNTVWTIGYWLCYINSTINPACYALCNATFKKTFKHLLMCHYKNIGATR", "test": "Inhibition of human muscarinic M2 receptor at 0.1 to 1 uM", "details": "dose 0.1-1 µM"}, "[5]": {"target": "Beta-2 adrenergic receptor (Homo sapiens, UniProt P07550)", "sequence (P07550 whole entry)": "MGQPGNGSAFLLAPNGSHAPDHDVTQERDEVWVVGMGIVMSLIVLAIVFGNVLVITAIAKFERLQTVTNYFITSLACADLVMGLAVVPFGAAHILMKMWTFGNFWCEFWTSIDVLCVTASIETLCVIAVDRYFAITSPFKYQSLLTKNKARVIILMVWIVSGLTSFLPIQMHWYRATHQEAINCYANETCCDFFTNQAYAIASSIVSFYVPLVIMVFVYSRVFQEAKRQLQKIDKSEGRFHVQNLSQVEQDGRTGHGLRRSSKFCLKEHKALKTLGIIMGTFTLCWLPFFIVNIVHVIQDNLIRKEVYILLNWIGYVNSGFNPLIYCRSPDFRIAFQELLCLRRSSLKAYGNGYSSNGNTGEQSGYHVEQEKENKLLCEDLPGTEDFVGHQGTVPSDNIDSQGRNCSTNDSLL", "test": "Inhibition of human adrenergic beta 2 receptor at 0.1 to 1 uM", "details": "dose 0.1-1 µM"}, "[6]": {"target": "Muscarinic acetylcholine receptor M3 (Homo sapiens, UniProt P20309)", "sequence (P20309 whole entry)": "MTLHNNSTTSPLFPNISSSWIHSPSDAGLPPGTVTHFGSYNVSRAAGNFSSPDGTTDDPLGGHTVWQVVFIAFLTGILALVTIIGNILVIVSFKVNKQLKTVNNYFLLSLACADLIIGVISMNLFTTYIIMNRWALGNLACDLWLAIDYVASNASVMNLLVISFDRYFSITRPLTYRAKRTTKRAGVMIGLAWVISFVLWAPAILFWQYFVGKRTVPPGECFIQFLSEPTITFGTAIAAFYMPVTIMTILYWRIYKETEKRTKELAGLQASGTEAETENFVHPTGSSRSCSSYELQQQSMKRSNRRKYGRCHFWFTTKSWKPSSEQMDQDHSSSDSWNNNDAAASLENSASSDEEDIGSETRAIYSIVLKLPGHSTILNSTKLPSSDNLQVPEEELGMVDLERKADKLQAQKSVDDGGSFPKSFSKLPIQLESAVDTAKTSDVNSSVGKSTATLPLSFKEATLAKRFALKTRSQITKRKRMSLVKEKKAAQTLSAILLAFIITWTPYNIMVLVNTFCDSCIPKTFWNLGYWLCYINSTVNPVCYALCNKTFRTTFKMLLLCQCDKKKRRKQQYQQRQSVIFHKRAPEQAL", "test": "Inhibition of human muscarinic M3 receptor at 0.1 to 1 uM", "details": "dose 0.1-1 µM"}, "[7]": {"target": "hERG (KCNH2) (Homo sapiens, UniProt Q12809)", "sequence (Q12809 whole entry)": "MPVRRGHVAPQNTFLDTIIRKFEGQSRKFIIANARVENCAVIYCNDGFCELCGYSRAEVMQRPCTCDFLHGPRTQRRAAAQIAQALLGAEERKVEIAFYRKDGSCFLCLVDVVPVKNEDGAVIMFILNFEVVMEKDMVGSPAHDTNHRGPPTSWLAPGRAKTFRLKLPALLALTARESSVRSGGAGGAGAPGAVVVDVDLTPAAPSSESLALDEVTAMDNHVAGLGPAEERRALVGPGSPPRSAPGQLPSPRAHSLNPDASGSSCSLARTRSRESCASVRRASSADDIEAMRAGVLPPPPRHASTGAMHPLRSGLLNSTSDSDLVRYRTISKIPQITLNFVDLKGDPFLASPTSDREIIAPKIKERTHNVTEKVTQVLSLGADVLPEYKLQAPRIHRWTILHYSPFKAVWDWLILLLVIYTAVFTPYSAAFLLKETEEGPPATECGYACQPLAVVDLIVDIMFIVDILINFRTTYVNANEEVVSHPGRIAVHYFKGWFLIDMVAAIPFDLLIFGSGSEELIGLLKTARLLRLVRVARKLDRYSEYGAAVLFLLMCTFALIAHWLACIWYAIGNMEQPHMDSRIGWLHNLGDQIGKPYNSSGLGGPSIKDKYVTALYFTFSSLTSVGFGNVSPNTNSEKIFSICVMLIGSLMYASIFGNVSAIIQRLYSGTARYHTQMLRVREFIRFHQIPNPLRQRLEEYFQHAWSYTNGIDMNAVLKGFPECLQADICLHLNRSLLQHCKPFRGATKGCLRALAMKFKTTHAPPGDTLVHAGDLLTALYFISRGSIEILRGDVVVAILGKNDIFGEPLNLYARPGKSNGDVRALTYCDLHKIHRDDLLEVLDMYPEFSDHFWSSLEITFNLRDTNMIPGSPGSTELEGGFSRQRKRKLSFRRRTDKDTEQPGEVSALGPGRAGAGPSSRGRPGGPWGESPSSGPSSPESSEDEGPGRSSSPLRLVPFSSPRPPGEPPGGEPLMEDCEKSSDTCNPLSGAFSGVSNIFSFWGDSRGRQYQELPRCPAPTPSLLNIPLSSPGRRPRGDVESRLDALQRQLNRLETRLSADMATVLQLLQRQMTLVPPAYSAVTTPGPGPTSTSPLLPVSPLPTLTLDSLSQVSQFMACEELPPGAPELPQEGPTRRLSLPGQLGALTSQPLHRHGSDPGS", "test": "Inhibition of human ERG at 5 uM by patch clamp method relative to control"}, "[8]": {"target": "D(2) dopamine receptor (Homo sapiens, UniProt P14416)", "sequence (P14416 whole entry)": "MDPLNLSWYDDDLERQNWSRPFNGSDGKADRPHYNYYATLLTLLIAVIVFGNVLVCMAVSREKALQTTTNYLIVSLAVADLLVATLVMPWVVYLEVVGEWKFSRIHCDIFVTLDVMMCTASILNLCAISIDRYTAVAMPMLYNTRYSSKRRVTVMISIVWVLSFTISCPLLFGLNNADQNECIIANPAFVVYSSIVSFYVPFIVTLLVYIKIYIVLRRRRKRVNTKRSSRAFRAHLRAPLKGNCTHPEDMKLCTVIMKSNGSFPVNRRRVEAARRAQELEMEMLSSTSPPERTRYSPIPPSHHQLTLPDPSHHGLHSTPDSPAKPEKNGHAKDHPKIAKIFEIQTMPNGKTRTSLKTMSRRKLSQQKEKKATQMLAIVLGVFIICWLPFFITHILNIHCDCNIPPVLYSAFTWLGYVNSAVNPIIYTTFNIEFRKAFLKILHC", "test": "Inhibition of human dopamine D2S receptor at 0.1 to 1 uM", "details": "dose 0.1-1 µM"}, "[9]": {"test": "Volume of distribution in Beagle dog at 1 mg/kg, iv measured after 24 hrs", "format": "ADME, organism-based, Canis lupus familiaris", "details": "in vivo, read-out: Vdss"}, "[10]": {"test": "Clearance in Beagle dog at 1 mg/kg, iv measured after 24 hrs relative to hepatic blood flow", "format": "ADME, organism-based, Canis lupus familiaris", "details": "in vivo"}, "[11]": {"target": "Sigma intracellular receptor 2 (Homo sapiens, UniProt Q5BJF2)", "sequence (Q5BJF2 whole entry)": "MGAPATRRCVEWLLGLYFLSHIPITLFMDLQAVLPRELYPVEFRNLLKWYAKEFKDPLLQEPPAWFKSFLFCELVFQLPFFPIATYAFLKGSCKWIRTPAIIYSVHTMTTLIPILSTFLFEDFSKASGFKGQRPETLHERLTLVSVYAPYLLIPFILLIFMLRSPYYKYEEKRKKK", "test": "Inhibition of sigma 2 receptor (unknown origin) at 0.1 to 1 uM", "details": "dose 0.1-1 µM"}, "[12]": {"target": "Acetylcholinesterase (Homo sapiens, UniProt P22303)", "sequence (P22303 whole entry)": "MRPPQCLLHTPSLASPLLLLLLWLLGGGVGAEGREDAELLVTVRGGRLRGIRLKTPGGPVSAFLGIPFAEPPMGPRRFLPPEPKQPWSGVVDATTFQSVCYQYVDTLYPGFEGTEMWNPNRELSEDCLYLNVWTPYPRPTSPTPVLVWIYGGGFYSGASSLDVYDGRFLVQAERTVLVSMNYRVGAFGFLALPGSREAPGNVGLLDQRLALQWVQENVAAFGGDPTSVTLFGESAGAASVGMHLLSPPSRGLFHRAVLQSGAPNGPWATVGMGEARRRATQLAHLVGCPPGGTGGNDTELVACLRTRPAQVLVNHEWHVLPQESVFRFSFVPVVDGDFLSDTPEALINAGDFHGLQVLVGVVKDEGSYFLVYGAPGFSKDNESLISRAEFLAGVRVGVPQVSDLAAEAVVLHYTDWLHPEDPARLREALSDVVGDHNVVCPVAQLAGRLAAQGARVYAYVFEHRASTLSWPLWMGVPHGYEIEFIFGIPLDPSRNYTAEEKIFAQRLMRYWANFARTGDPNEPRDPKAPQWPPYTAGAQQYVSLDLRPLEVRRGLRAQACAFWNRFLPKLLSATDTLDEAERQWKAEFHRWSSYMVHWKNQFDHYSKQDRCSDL", "test": "Inhibition of acetylcholinesterase (unknown origin) at 0.1 to 1 uM", "details": "dose 0.1-1 µM"}},
  "data": [
    {"smiles": "CCN1C(=O)N(c2c(F)c(OC)cc(OC)c2F)Cc2cnc3[nH]c(CN4CCOCC4)cc3c21", "note": "[PEMIGATINIB]", "values": [
      {"measurement": "inhibition (INH)", "setting": "[1]", "result": "Not Active"},
      {"measurement": "bioavailability", "setting": "[2]", "result": "> 100", "unit": "%"},
      {"measurement": "AUC at 24 h", "setting": "[3]", "result": 6.19, "unit": "µM·h"},
      {"measurement": "inhibition (INH)", "setting": "[4]", "result": "Not Active"},
      {"measurement": "inhibition (INH)", "setting": "[5]", "result": "Not Active"},
      {"measurement": "inhibition (INH)", "setting": "[6]", "result": "Not Active"},
      {"measurement": "inhibition at 5 µM", "setting": "[7]", "result": 9, "unit": "%"},
      {"measurement": "inhibition (INH)", "setting": "[8]", "result": "Not Active"},
      {"measurement": "Vd", "setting": "[9]", "result": 3.49, "unit": "L/kg"},
      {"measurement": "CL", "setting": "[10]", "result": 10, "unit": "%"},
      {"measurement": "inhibition (INH)", "setting": "[11]", "result": "Not Active"},
      {"measurement": "inhibition (INH)", "setting": "[12]", "result": "Not Active"}
    ]}
  ]
}
